We go through 3 compounds from ChEMBL document CHEMBL4411303, “Synthesis of tetrazole derivatives bearing pyrrolidine scaffold and evaluation of their antifungal activity against Candida albicans” (Eur J Med Chem, 2019).

For assay [1], the system named is Candida albicans. The experiment in a line: Antifungal activity against Candida albicans ATCC 90028 assessed as planktonic growth inhibition at 0.16 uM after 48 hrs by M27-A3 protocol based method relative to control. The note with it: ATCC 90028, 48 h, read-out: GI. Format: functional.
Assay [2] concerns Candida albicans. Kind of assay: Antifungal activity against Candida albicans ATCC 90028 assessed as planktonic growth inhibition at 20.73 uM after 48 hrs by M27-A3 protocol based method relative to control. Type of assay: functional. The note with it: ATCC 90028, 48 h, read-out: GI.
For assay [3], the system named is Candida albicans. The experiment in a line: Antifungal activity against Candida albicans ATCC 90028 assessed as planktonic growth inhibition at 0.32 uM after 48 hrs by M27-A3 protocol based method relative to control. Format: functional. The note with it: ATCC 90028, 48 h, read-out: GI.
The test system of assay [4] is Candida albicans. The experiment in a line: Antifungal activity against Candida albicans ATCC 90028 assessed as planktonic growth inhibition at 2.59 uM after 48 hrs by M27-A3 protocol based method relative to control. Format: functional. The note with it: ATCC 90028, 48 h, read-out: GI.
Assay [5] deals with Candida albicans. Kind of assay: Antifungal activity against Candida albicans ATCC 90028 assessed as planktonic growth inhibition at 41.47 uM after 48 hrs by M27-A3 protocol based method relative to control. The note with it: ATCC 90028, 48 h, read-out: GI. Format: functional.
The test system of assay [6] is Candida albicans. Kind of assay: Antifungal activity against Candida albicans ATCC 90028 assessed as planktonic growth inhibition at 1.3 uM after 48 hrs by M27-A3 protocol based method relative to control. Format: functional. The note with it: ATCC 90028, 48 h, read-out: GI.
Assay [7] relates to Candida albicans. The experiment in a line: Antifungal activity against Candida albicans ATCC 90028 assessed as planktonic growth inhibition at 5.18 uM after 48 hrs by M27-A3 protocol based method relative to control. Type of assay: functional. The note with it: ATCC 90028, 48 h, read-out: GI.
Assay [8] has as its system Candida albicans. The experiment in a line: Antifungal activity against Candida albicans ATCC 90028 assessed as planktonic growth inhibition at 10.37 uM after 48 hrs by M27-A3 protocol based method relative to control. Format: functional. The note with it: ATCC 90028, 48 h, read-out: GI.
In assay [9] the test system is Candida albicans. The experiment in a line: Antifungal activity against Candida albicans ATCC 90028 assessed as planktonic growth inhibition at 0.08 uM after 48 hrs by M27-A3 protocol based method relative to control. Type of assay: functional. The note with it: ATCC 90028, 48 h, read-out: GI.
Assay [10] relates to Candida albicans. Kind of assay: Fungicidal activity against Candida albicans ATCC 90028 assessed as log reduction in fungal load incubated for 48 hrs followed by replating on sabouraud dextrose agar plate and measured after 48 hrs. Type of assay: functional.
For assay [11], the system named is Candida albicans. The experiment in a line: Antifungal activity against Candida albicans ATCC 90028 assessed as planktonic growth inhibition at 0.65 uM after 48 hrs by M27-A3 protocol based method relative to control. Type of assay: functional. The note with it: ATCC 90028, 48 h, read-out: GI.
The subject of assay [12] is Candida albicans. Kind of assay: Antifungal activity against Candida albicans ATCC 90028 assessed as planktonic growth inhibition at 11.07 uM after 48 hrs by M27-A3 protocol based method relative to control. Format: functional. The note with it: ATCC 90028, 48 h, read-out: GI.
The test system of assay [13] is Candida albicans. Kind of assay: Antifungal activity against Candida albicans ATCC 90028 assessed as planktonic growth inhibition at 5.53 uM after 48 hrs by M27-A3 protocol based method relative to control. Type of assay: functional. The note with it: ATCC 90028, 48 h, read-out: GI.
Assay [14] has as its system Candida albicans. Kind of assay: Antifungal activity against Candida albicans ATCC 90028 assessed as planktonic growth inhibition at 44.26 uM after 48 hrs by M27-A3 protocol based method relative to control. Type of assay: functional. The note with it: ATCC 90028, 48 h, read-out: GI.
Assay [15] relates to Candida albicans. Kind of assay: Antifungal activity against Candida albicans ATCC 90028 assessed as planktonic growth inhibition at 0.69 uM after 48 hrs by M27-A3 protocol based method relative to control. Format: functional. The note with it: ATCC 90028, 48 h, read-out: GI.
The test system of assay [16] is Candida albicans. Kind of assay: Antifungal activity against Candida albicans ATCC 90028 assessed as planktonic growth inhibition at 0.17 uM after 48 hrs by M27-A3 protocol based method relative to control. The note with it: ATCC 90028, 48 h, read-out: GI. Format: functional.
Assay [17] deals with Candida albicans. The experiment in a line: Antifungal activity against Candida albicans ATCC 90028 assessed as planktonic growth inhibition at 1.38 uM after 48 hrs by M27-A3 protocol based method relative to control. The note with it: ATCC 90028, 48 h, read-out: GI. Format: functional.
For assay [18], the system named is Candida albicans. The experiment in a line: Antifungal activity against Candida albicans ATCC 90028 assessed as planktonic growth inhibition at 2.77 uM after 48 hrs by M27-A3 protocol based method relative to control. Type of assay: functional. The note with it: ATCC 90028, 48 h, read-out: GI.
Assay [19] concerns Candida albicans. The experiment in a line: Antifungal activity against Candida albicans ATCC 90028 assessed as planktonic growth inhibition at 0.35 uM after 48 hrs by M27-A3 protocol based method relative to control. Format: functional. The note with it: ATCC 90028, 48 h, read-out: GI.
Assay [20] has as its system Candida albicans. The experiment in a line: Antifungal activity against Candida albicans ATCC 90028 assessed as planktonic growth inhibition at 0.09 uM after 48 hrs by M27-A3 protocol based method relative to control. Format: functional. The note with it: ATCC 90028, 48 h, read-out: GI.
Assay [21] relates to Candida albicans. The experiment in a line: Antifungal activity against Candida albicans ATCC 90028 assessed as planktonic growth inhibition at 22.13 uM after 48 hrs by M27-A3 protocol based method relative to control. Type of assay: functional. The note with it: ATCC 90028, 48 h, read-out: GI.
For assay [22], the system named is Candida albicans. The experiment in a line: Cell cycle arrest in Candida albicans ATCC 90028 assessed as accumulation at G0/G1-phase by propidium iodide staining based flow cytometry. Type of assay: functional, organism-based.
Assay [23] deals with Candida albicans. The experiment in a line: Antifungal activity against Candida albicans ATCC 90028 infected in Galleria mellonella larvae assessed as induction of pathogen entrapping by haemocytes at 10 uL measured at 24 hrs interval for 144 hrs by HE staining based microscopic analysis. Type of assay: functional, organism-based.
The test system of assay [24] is Candida albicans. The experiment in a line: Antifungal activity against Candida albicans ATCC 90028 infected in Galleria mellonella larvae assessed as inhibition of fungus filamentation at 10 uL measured at 24 hrs interval for 144 hrs by HE staining based microscopic analysis. Format: functional, organism-based.
For assay [25], the system named is Candida albicans. Kind of assay: Antifungal activity against Candida albicans ATCC 90028 assessed as planktonic growth inhibition at 1.42 uM after 48 hrs by M27-A3 protocol based method relative to control. Type of assay: functional. The note with it: ATCC 90028, 48 h, read-out: GI.
Assay [26] deals with Candida albicans. Kind of assay: Antifungal activity against Candida albicans ATCC 90028 assessed as planktonic growth inhibition at 0.18 uM after 48 hrs by M27-A3 protocol based method relative to control. Type of assay: functional. The note with it: ATCC 90028, 48 h, read-out: GI.
Assay [27] deals with Candida albicans. Kind of assay: Antifungal activity against Candida albicans ATCC 90028 assessed as planktonic growth inhibition at 22.76 uM after 48 hrs by M27-A3 protocol based method relative to control. The note with it: ATCC 90028, 48 h, read-out: GI. Format: functional.
Assay [28] has as its system Candida albicans. Kind of assay: Antifungal activity against Candida albicans ATCC 90028 assessed as planktonic growth inhibition at 2.85 uM after 48 hrs by M27-A3 protocol based method relative to control. Format: functional. The note with it: ATCC 90028, 48 h, read-out: GI.
The subject of assay [29] is Candida albicans. The experiment in a line: Antifungal activity against Candida albicans ATCC 90028 assessed as planktonic growth inhibition at 5.69 uM after 48 hrs by M27-A3 protocol based method relative to control. Type of assay: functional. The note with it: ATCC 90028, 48 h, read-out: GI.
Assay [30] deals with Candida albicans. The experiment in a line: Antifungal activity against Candida albicans ATCC 90028 assessed as planktonic growth inhibition at 0.71 uM after 48 hrs by M27-A3 protocol based method relative to control. Type of assay: functional. The note with it: ATCC 90028, 48 h, read-out: GI.
In assay [31] the test system is Candida albicans. Kind of assay: Antifungal activity against Candida albicans ATCC 90028 assessed as planktonic growth inhibition at 0.36 uM after 48 hrs by M27-A3 protocol based method relative to control. Type of assay: functional. The note with it: ATCC 90028, 48 h, read-out: GI.
In assay [32] the test system is Candida albicans. Kind of assay: Antifungal activity against Candida albicans ATCC 90028 assessed as planktonic growth inhibition at 11.38 uM after 48 hrs by M27-A3 protocol based method relative to control. Type of assay: functional. The note with it: ATCC 90028, 48 h, read-out: GI.
Assay [33] relates to Candida albicans. The experiment in a line: Antifungal activity against Candida albicans ATCC 90028 assessed as planktonic growth inhibition at 45.53 uM after 48 hrs by M27-A3 protocol based method relative to control. The note with it: ATCC 90028, 48 h, read-out: GI. Format: functional.

The source made the active and inactive calls. The calls are words filed in the database; no cut-off is given here.

Consider `Fc1ccc(C2CCCN2CCCn2nnc(-c3ccccc3Cl)n2)cc1` (stereo unspecified), for which, in assay [1], the inhibition of growth at 0.16 µM is 98.7%. For the same compound, the inhibition of growth at 20.73 µM in assay [2] came out at 99.5%. Also, the inhibition of growth at 0.32 µM in [3] is 98.9%. In addition, the inhibition of growth at 2.59 µM in [4] was 99.3%. The inhibition of growth at 41.47 µM in assay [5] was determined as 99.6%. Besides, the inhibition of growth at 1.3 µM in assay [6] was 99.2%. In addition, the inhibition of growth at 5.18 µM in assay [7] turned out to be 99.3%. In [8], the inhibition of growth at 10.37 µM is 99.4%. Besides, the inhibition of growth at 0.08 µM in [9] was determined as 98.6%. Besides, the “log(activity)” value in [10] is given as -0.4. The inhibition of growth at 0.65 µM in assay [11] is 99%.
Regarding `Cc1ccc(-c2nnn(CCCN3CCCC3c3cccc(C)c3)n2)cc1` (stereo unspecified), in [12], the inhibition of growth at 11.07 µM is 98.8%. Further, the inhibition of growth at 5.53 µM in assay [13] came to 99.1%. For the same compound, in assay [14], the inhibition of growth at 44.26 µM worked out at 99%. Further, the inhibition of growth at 0.69 µM in [15] worked out at 98.9%. In assay [16], the inhibition of growth at 0.17 µM came to 98.9%. In addition, the inhibition of growth at 1.38 µM in [17] is 98.9%. In addition, the inhibition of growth at 2.77 µM in assay [18] amounted to 99.3%. In addition, the inhibition of growth at 0.35 µM in assay [19] is 99%. Besides, in [20], the inhibition of growth at 0.09 µM was determined as 98.9%. Moreover, in assay [10], the “log(activity)” value is recorded as -0.4. Moreover, the inhibition of growth at 22.13 µM in assay [21] came out at 98.7%.
On to `Fc1ccc(C2CCCN2CCCn2nnc(-c3ccccc3)n2)cc1` (stereo unspecified), for which the outcome in [22] and in assay [23] was Active. Further, in assay [24], the inhibition entry is “Active”. Moreover, the inhibition of growth at 1.42 µM in [25] was 99.5%. In addition, the inhibition of growth at 0.18 µM in [26] turned out to be 99.2%. In [27], the inhibition of growth at 22.76 µM came to 99.2%. The inhibition of growth at 2.85 µM in assay [28] was 99.3%. Moreover, in assay [29], the inhibition of growth at 5.69 µM was found to be 99.3%. The inhibition of growth at 0.09 µM in [20] stood at 99.2%. Also, the inhibition of growth at 0.71 µM in assay [30] was 99.3%. Further, the “log(activity)” value in [10] is recorded as -0.5. Besides, the inhibition of growth at 0.36 µM in assay [31] is 99.2%. For the same compound, in assay [32], the inhibition of growth at 11.38 µM turned out to be 99.3%. The inhibition of growth at 45.53 µM in assay [33] is 99.5%.
